How the values were obtained:
Assay in all cases: relative viability (nuclei count vs DMSO), 5 days (fraction); higher = more cells survive
[1] = compound: CCCS(=O)(=O)Nc1ccc(F)c(C(=O)c2c[nH]c3ncc(-c4ccc(Cl)cc4)cc23)c1F [Vemurafenib] + Cc1cc(Nc2cc(N3CCN(C)CC3)nc(Sc3ccc(NC(=O)C4CC4)cc3)n2)n[nH]1 [Tozasertib] (partner 0.1 µM)
Outline: (§1)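 Lung cancer cell lines in 1536-well plates got either a single drug or a fixed anchor-drug dose together with five library-drug doses (not always all listed) in √10 steps, by pin tool, on the day after seeding. Nuclei were counted after 5 days, and relative viability is the treated-to-vehicle ratio of nuclei counts. Values are medians of duplicate plates.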

[2] = compound: COc1cccc2cc(-c3nc([C@H]4CC[C@H](C(=O)O)CC4)n4ncnc(N)c34)[nH]c12 [OSI-027] + CC(C)C[C@H](NC(=O)[C@H](Cc1ccccc1)NC(=O)c1cnccn1)B(O)O [Bortezomib] (partner 0.002 µM)
Outline: as §1

[3] = compound: CCCS(=O)(=O)Nc1ccc(F)c(C(=O)c2c[nH]c3ncc(-c4ccc(Cl)cc4)cc23)c1F [Vemurafenib] + COc1cc2c(Oc3ccc(NC(=O)C4(C(=O)Nc5ccc(F)cc5)CC4)cc3F)ccnc2cc1OCCCN1CCOCC1 [Foretinib] (partner 0.25 µM)
Outline: as §1

[4] = compound: Cc1nc(NC(=O)N2CCC[C@H]2C(N)=O)sc1-c1ccnc(C(C)(C)C(F)(F)F)c1 [Alpelisib] + CC(=O)Nc1cccc(-n2c(=O)n(C3CC3)c(=O)c3c(Nc4ccc(I)cc4F)n(C)c(=O)c(C)c32)c1 [Trametinib] (partner 0.02 µM)
Outline: as §1

Work on NCI-H1437 yielded a relative viability ([1]; first compound 0.03162 µM) of 0.404, a relative viability ([1]; first compound 0.1 µM) of 0.381 and a relative viability ([1]; first compound 0.3162 µM) of 0.396. It also gave a relative viability ([1]; first compound 1 µM) of 0.363, a relative viability ([2]; first compound 0.01 µM) of 0.43 and a relative viability ([2]; first compound 0.03162 µM) of 0.409. For the same cell line, the relative viability ([2]; first compound 0.1 µM) was 0.538, the relative viability ([2]; first compound 0.3162 µM) was 0.487 and the relative viability ([2]; first compound 1 µM) was 0.258. It also gave a relative viability ([3]; first compound 0.03162 µM) of 1.18, a relative viability ([3]; first compound 0.1 µM) of 1.22 and a relative viability ([3]; first compound 0.3162 µM) of 1.3. It also gave a relative viability ([3]; first compound 1 µM) of 1.27, a relative viability ([4]; first compound 0.04 µM) of 0.434 and a relative viability ([4]; first compound 0.1265 µM) of 0.492. It also gave a relative viability ([4]; first compound 0.4 µM) of 0.539, a relative viability ([4]; first compound 1.265 µM) of 0.382 and a relative viability ([4]; first compound 4 µM) of 0.304.
With NCI-H1650 the relative viability ([1]; first compound 0.1 µM) was 0.277, the relative viability ([1]; first compound 1 µM) was 0.272 and the relative viability ([2]; first compound 0.01 µM) was 0.171. The relative viability ([2]; first compound 0.03162 µM) was 0.195, the relative viability ([2]; first compound 0.1 µM) was 0.206 and the relative viability ([2]; first compound 0.3162 µM) was 0.201. For the same cell line, the relative viability ([2]; first compound 1 µM) was 0.19, the relative viability ([3]; first compound 0.1 µM) was 0.649 and the relative viability ([3]; first compound 1 µM) was 1.19. It also gave a relative viability ([4]; first compound 0.04 µM) of 0.688, a relative viability ([4]; first compound 0.1265 µM) of 0.487 and a relative viability ([4]; first compound 0.4 µM) of 0.638. It also gave a relative viability ([4]; first compound 1.265 µM) of 0.505 and a relative viability ([4]; first compound 4 µM) of 0.544.
NCI-H1651 was tested, and the relative viability ([1]; first compound 0.03162 µM) was 0.605, the relative viability ([1]; first compound 0.1 µM) was 0.594 and the relative viability ([1]; first compound 0.3162 µM) was 0.636. For the same cell line, the relative viability ([1]; first compound 1 µM) was 0.57, the relative viability ([2]; first compound 0.01 µM) was 0.929 and the relative viability ([2]; first compound 0.03162 µM) was 0.954. For the same cell line, the relative viability ([2]; first compound 0.1 µM) was 0.884, the relative viability ([2]; first compound 0.3162 µM) was 0.929 and the relative viability ([2]; first compound 1 µM) was 0.737. It also gave a relative viability ([3]; first compound 0.03162 µM) of 0.647, a relative viability ([3]; first compound 0.1 µM) of 0.742 and a relative viability ([3]; first compound 0.3162 µM) of 0.88. The relative viability ([3]; first compound 1 µM) was 0.789, the relative viability ([4]; first compound 0.04 µM) was 0.752 and the relative viability ([4]; first compound 0.1265 µM) was 0.828. The relative viability ([4]; first compound 0.4 µM) was 0.807, the relative viability ([4]; first compound 1.265 µM) was 0.759 and the relative viability ([4]; first compound 4 µM) was 0.561.
With NCI-H1666 the relative viability ([1]; first compound 0.03162 µM) was 0.575, the relative viability ([1]; first compound 0.1 µM) was 0.549 and the relative viability ([1]; first compound 0.3162 µM) was 0.801. The relative viability ([1]; first compound 1 µM) was 0.579, the relative viability ([2]; first compound 0.01 µM) was 0.707 and the relative viability ([2]; first compound 0.03162 µM) was 0.9. The relative viability ([2]; first compound 0.1 µM) was 0.688, the relative viability ([2]; first compound 0.3162 µM) was 0.425 and the relative viability ([2]; first compound 1 µM) was 0.372. It also gave a relative viability ([3]; first compound 0.03162 µM) of 0.99, a relative viability ([3]; first compound 0.1 µM) of 0.87 and a relative viability ([3]; first compound 0.3162 µM) of 0.993. For the same cell line, the relative viability ([3]; first compound 1 µM) was 0.925, the relative viability ([4]; first compound 0.04 µM) was 0.799 and the relative viability ([4]; first compound 0.1265 µM) was 0.841. It also gave a relative viability ([4]; first compound 0.4 µM) of 0.903, a relative viability ([4]; first compound 1.265 µM) of 0.784 and a relative viability ([4]; first compound 4 µM) of 0.71.
With NCI-H1734 the relative viability ([1]; first compound 0.03162 µM) was 0.269, the relative viability ([1]; first compound 0.1 µM) was 0.246 and the relative viability ([1]; first compound 0.3162 µM) was 0.281. The relative viability ([1]; first compound 1 µM) was 0.269, the relative viability ([2]; first compound 0.01 µM) was 0.958 and the relative viability ([2]; first compound 0.03162 µM) was 0.809. For the same cell line, the relative viability ([2]; first compound 0.1 µM) was 0.852, the relative viability ([2]; first compound 0.3162 µM) was 0.834 and the relative viability ([2]; first compound 1 µM) was 0.47. The relative viability ([3]; first compound 0.03162 µM) was 0.81, the relative viability ([3]; first compound 0.1 µM) was 0.82 and the relative viability ([3]; first compound 0.3162 µM) was 0.779. It also gave a relative viability ([3]; first compound 1 µM) of 0.763, a relative viability ([4]; first compound 0.04 µM) of 0.566 and a relative viability ([4]; first compound 0.1265 µM) of 0.626. For the same cell line, the relative viability ([4]; first compound 0.4 µM) was 0.624, the relative viability ([4]; first compound 1.265 µM) was 0.533 and the relative viability ([4]; first compound 4 µM) was 0.394.
NCI-H1755 showed a relative viability ([1]; first compound 0.03162 µM) of 0.516, a relative viability ([1]; first compound 0.1 µM) of 0.562 and a relative viability ([1]; first compound 0.3162 µM) of 0.555. For the same cell line, the relative viability ([1]; first compound 1 µM) was 0.53, the relative viability ([2]; first compound 0.01 µM) was 1 and the relative viability ([2]; first compound 0.03162 µM) was 0.96. For the same cell line, the relative viability ([2]; first compound 0.1 µM) was 0.983, the relative viability ([2]; first compound 0.3162 µM) was 0.89 and the relative viability ([2]; first compound 1 µM) was 0.556. The relative viability ([3]; first compound 0.03162 µM) was 0.882, the relative viability ([3]; first compound 0.1 µM) was 0.889 and the relative viability ([3]; first compound 0.3162 µM) was 0.891. The relative viability ([3]; first compound 1 µM) was 0.832, the relative viability ([4]; first compound 0.04 µM) was 0.852 and the relative viability ([4]; first compound 0.1265 µM) was 0.726. It also gave a relative viability ([4]; first compound 0.4 µM) of 0.718, a relative viability ([4]; first compound 1.265 µM) of 0.72 and a relative viability ([4]; first compound 4 µM) of 0.668.
With NCI-H1915 the relative viability ([1]; first compound 0.03162 µM) was 0.436, the relative viability ([1]; first compound 0.1 µM) was 0.439 and the relative viability ([1]; first compound 0.3162 µM) was 0.411. The relative viability ([1]; first compound 1 µM) was 0.342, the relative viability ([2]; first compound 0.01 µM) was 1.04 and the relative viability ([2]; first compound 0.03162 µM) was 0.995. The relative viability ([2]; first compound 0.1 µM) was 1.04, the relative viability ([2]; first compound 0.3162 µM) was 0.968 and the relative viability ([2]; first compound 1 µM) was 0.898. The relative viability ([3]; first compound 0.03162 µM) was 1.09, the relative viability ([3]; first compound 0.1 µM) was 1.05 and the relative viability ([3]; first compound 0.3162 µM) was 1.03. The relative viability ([3]; first compound 1 µM) was 1, the relative viability ([4]; first compound 0.04 µM) was 0.307 and the relative viability ([4]; first compound 0.1265 µM) was 0.304. It also gave a relative viability ([4]; first compound 0.4 µM) of 0.312, a relative viability ([4]; first compound 1.265 µM) of 0.285 and a relative viability ([4]; first compound 4 µM) of 0.26.
For NCI-H1975, the relative viability ([1]; first compound 0.03162 µM) was 0.688, the relative viability ([1]; first compound 0.1 µM) was 0.635 and the relative viability ([1]; first compound 0.3162 µM) was 0.45. For the same cell line, the relative viability ([1]; first compound 1 µM) was 0.238, the relative viability ([2]; first compound 0.01 µM) was 0.41 and the relative viability ([2]; first compound 0.03162 µM) was 0.337. For the same cell line, the relative viability ([2]; first compound 0.1 µM) was 0.464, the relative viability ([2]; first compound 0.3162 µM) was 0.318 and the relative viability ([2]; first compound 1 µM) was 0.274. For the same cell line, the relative viability ([3]; first compound 0.03162 µM) was 0.957, the relative viability ([3]; first compound 0.1 µM) was 0.969 and the relative viability ([3]; first compound 0.3162 µM) was 0.792. The relative viability ([3]; first compound 1 µM) was 0.963, the relative viability ([4]; first compound 0.04 µM) was 0.364 and the relative viability ([4]; first compound 0.1265 µM) was 0.315. For the same cell line, the relative viability ([4]; first compound 0.4 µM) was 0.317, the relative viability ([4]; first compound 1.265 µM) was 0.258 and the relative viability ([4]; first compound 4 µM) was 0.177.
Cell Line NCI-H1993 has a relative viability ([1]; first compound 0.03162 µM) of 0.473, a relative viability ([1]; first compound 0.3162 µM) of 0.569 and a relative viability ([1]; first compound 1 µM) of 0.571. It also gave a relative viability ([2]; first compound 0.01 µM) of 1.11, a relative viability ([2]; first compound 0.03162 µM) of 0.898 and a relative viability ([2]; first compound 0.1 µM) of 0.788. The relative viability ([2]; first compound 0.3162 µM) was 0.625, the relative viability ([2]; first compound 1 µM) was 0.542 and the relative viability ([3]; first compound 0.03162 µM) was 0.793. The relative viability ([3]; first compound 0.3162 µM) was 0.98, the relative viability ([3]; first compound 1 µM) was 0.823 and the relative viability ([4]; first compound 0.04 µM) was 0.539. For the same cell line, the relative viability ([4]; first compound 0.1265 µM) was 0.477, the relative viability ([4]; first compound 0.4 µM) was 0.5 and the relative viability ([4]; first compound 1.265 µM) was 0.483. The relative viability ([4]; first compound 4 µM) was 0.49.
